Data: US5709816A, “Singlet oxygen quenchers and external compositions containing the same” (Kao Corporation, priority 1899, dated 1998)

Columns and labels:
[1] = tested on: sunburn cells in skin of ICR/HR mice; assay: Inhibition of sunburn cell formation (UV-B irradiation); type: in vivo; settings: Mus musculus, light or radiation study, topical; 1 wt. % in ethanol; UV-B 100 mJ/cm^2; 24 hours later; read-out: Inhibition ratio regarding sunburn cell formation
Text: Inhibition of sunburn cell formation
Ethanol solution of a test substance (1 wt. %) was applied onto the skin of ICR/HR mice. UV-B (100 mJ/cm^2) was irradiated onto the skin (health lamp SE20/SLE, Toshiba). Twenty-four hours later, the skin was biopsied and stained using hematoxylin & eosin, after which the number of sunburn cells were counted under microscope.

[2] = tested on: skin of colored guinea pigs; assay: Inhibition of delayed darkening (UV-A/UV-B irradiation); type: in vivo; settings: 7 wt. % in ethanol; UV-A/UV-B 50 J/cm^2; 14 days after irradiation; color difference meter
Protocol: Inhibition of delayed darkening
The hair of colored guinea pigs (8 week old, female) hair was removed, and an ethanol solution containing a test substance (7 wt. %) was applied to the skin. A mixture of UV- A/UV-B rays (50 J/cm^2, measured at 365 nm using a UV-radiometer UVR-305/365-D, Torex Co.) was irradiated onto the back of each guinea pig using a solar simulator. Fourteen days after irradiation, delayed darkening inhibition ratios were measured using a color difference meter (Model 1001P. Nippon Kogyo Co., Ltd.).

skin of ICR/HR mice = assay: Inhibition of wrinkle formation in the skin of mice (UV-B, 16 weeks); type: in vivo, ICR/HR mouse; settings: Mus musculus, topical, 2688 h; 1 wt. % in ethanol; 1 MED UV-B five times per week over sixteen weeks
Text: Inhibition of wrinkle formation in the skin of mice
To the back of each ICR/HR mouse (female, 6 weeks old), an ethanol solution containing a test substance (1 wt. %) was applied. One (1) MED of UV-B was irradiated thereto using a health lamp SL20-SLE (Toshiba). Irradiation was repeated five times per week over sixteen weeks. Wrinkle formation was visually scored using the following five rankings.
1: Mild and questionable wrinkles are observed
2: Mild but clear and definite wrinkles are observed
3: Moderate wrinkles are observed
4: Severe wrinkles are observed
Using the above rankings, wrinkle formations were scored and the inhibition ratios were determined by the division by the blank score.

SMILES | inhibition in vivo at 1 % [1] | ΔΔL value [2] | inhibition in vivo at 1 % (skin of ICR/HR mice)
CCCCN(CC(O)COC)c1ccccc1 (stereo not drawn) [Compound (6), N-n-butyl-N-(2-hydroxy-3-methoxypropyl)aniline] | 46% | 1.1 | 36%
COCC(O)CN(C)c1ccc(OC)cc1 (stereo not drawn) [Compound (1), N-(2-hydroxy-3-methoxypropyl)-N-methyl-p-anisidine] | 79% | 1.7 | 47%
CCCCCCCCN(CC(O)COC)c1ccc(OC)cc1 (stereo not drawn) [Compound (3), N-(2-hydroxy-3-methoxypropyl)-N-n-octyl-p-anisidine] | 86% | 2.0 | 58%
CCCCN(CC(O)COC)c1ccc(C)c(C)c1 (stereo not drawn) [Compound (32), N-n-butyl-N-(2-hydroxy-3-methoxypropyl)-3,4-xylidine] | 61% | 1.3 | 43%
CCCCCCCCN(CC(O)CO)c1ccc(OC)cc1 (stereo not drawn) [Compound (35), N-(2,3-dihydroxypropyl)-N-octyl-p-anisidine] | 81% | 1.9 | 42%
COCC(O)CN(CC(O)COC)c1ccc(C)cc1 (stereo not drawn) [Compound (4), N,N-bis(2-hydroxy-3-methoxypropyl)-p-toluidine] | 81% | 1.8 | 51%
CCCCN(CC(O)COC)c1ccc(OC)cc1 (stereo not drawn) [Compound (2), N-n-butyl-N-(2-hydroxy-3-methoxypropyl)-p-anisidine] | 53% | 1.1 | 38%
Cc1ccc(N(C)CC(O)CO)cc1 (stereo not drawn) [Compound (33), N-(2,3-dihydroxypropyl)-N-methyl-p-toluidine] | 54% | 1.1 | 35%
CCCCN(CC(O)COC)c1ccc(C)cc1 (stereo not drawn) [Compound (5), N-n-butyl-N-(2-hydroxy-3-methoxypropyl)-p-toluidine] | 65% | 1.5 | 43%
CCCCN(CC(O)CO)c1ccc(C)c(C)c1 (stereo not drawn) [Compound (34), N-n-butyl-N-(2,3-dihydroxypropyl)-3,4-xylidine] | 64% | 1.3 | 43%
